# Assay results as given in patent US9833497B2, “Human originated EGF domain proteins and use of the same” (CHENGDU SOURCEBIO LIMITED-LIABILITY COMPANY, priority 2013, dated 2017).
# Legend:
# Assay type in all cases: cell-based
# E. coli DH5α = assay: Antibacterial activity: MIC and growth curve against E. coli DH5α in 96-well plate; conditions: minimal inhibitory concentration against E. coli DH5α; 96-well plate, 5×10^5 CFU/mL, 37° C., judged after 8 h
# In short: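 MIC taken as lowest protein level with no bacterial growth, tracked by A600 every 30 min during 37 °C, 175 rpm culture. Two-fold protein series 50-12.5 μg/mL final, triplicate wells, against 5×10^5 CFU/mL of LB-washed mid-log cells.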
# E. coli BL21 = assay: MIC against Gram-negative bacteria: E. coli BL21; conditions: 5×10^5 CFU/mL; for MIC E. coli BL21: two-fold serial dilution
# In short: (§1)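 Inocula prepared by growing LB cultures at 37° C to 0.5 McFarland, centrifuging at 4000×g, and resuspending in fresh medium. Final density 5×10^5 CFU/mL per well with two-fold dilutions of purified EGF domain protein; shaking incubation at 37° C.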
# Pseudomonas aeruginosa = assay: MIC against Gram-negative bacteria: Pseudomonas aeruginosa; conditions: 5×10^5 CFU/mL; for MIC P. aeruginosa: two-fold serial dilution
# In short: as §1
# Klebsiella pneumonia = assay: MIC against Gram-negative bacteria: Klebsiella pneumonia; conditions: 5×10^5 CFU/mL; for MIC K. pneumonia: two-fold serial dilution
# In short: as §1
# Enterobacter cloacae = assay: MIC against Gram-negative bacteria: Enterobacter cloacae; conditions: 5×10^5 CFU/mL; for MIC E. cloacae: two-fold serial dilution
# In short: as §1
# Aeromonas hydrophila = assay: MIC against Gram-negative bacteria: Aeromonas hydrophila; conditions: 5×10^5 CFU/mL; for MIC A. hydrophila: two-fold serial dilution
# In short: as §1
# Citrobacter diversus = assay: MIC against Gram-negative bacteria: Citrobacter diversus; conditions: 5×10^5 CFU/mL; for MIC C. diversus: two-fold serial dilution
# In short: as §1
# Moraxella catarrhalis = assay: MIC against Gram-negative bacteria: Moraxella catarrhalis; conditions: 5×10^5 CFU/mL; for MIC M. catarrhalis: two-fold serial dilution
# In short: as §1
# Proteus mirabilis = assay: MIC against Gram-negative bacteria: Proteus mirabilis; conditions: 5×10^5 CFU/mL; for MIC P. mirabilis: two-fold serial dilution
# In short: as §1
# Proteus vulgaris = assay: MIC against Gram-negative bacteria: Proteus vulgaris; conditions: 5×10^5 CFU/mL; for MIC P. vulgaris: two-fold serial dilution
# In short: as §1
# Serratia marcescens = assay: MIC against Gram-negative bacteria: Serratia marcescens; conditions: 5×10^5 CFU/mL; for MIC S. marcescens: two-fold serial dilution
# In short: as §1
# [1] = Pseudomonas aeruginosa, 96-well plate, 37° C., 10 h
# [2] = Klebsiella pneumonia, 96-well plate, 37° C., 10 h
# [3] = Enterobacter cloacae, 96-well plate, 37° C., 10 h
# [4] = Aeromonas hydrophila, 96-well plate, 37° C., 10 h
# [5] = Citrobacter diversus, 96-well plate, 37° C., 10 h
# [6] = Moraxella catarrhalis, 96-well plate, 37° C., 10 h
# [7] = Proteus mirabilis, 96-well plate, 37° C., 10 h
# [8] = Proteus vulgaris, 96-well plate, 37° C., 10 h
# [9] = Serratia marcescens, 96-well plate, 37° C., 10 h
substance,measurement,setting,value
PRT1293 (KLDFCAQDLNPCQHDSKCILTPKGFKCDCTPGYVGEHCD; listed as Homo sapiens),MIC,E. coli DH5α,25 µg/mL
same,MIC against E. coli BL21,"E. coli BL21; 96-well plate, 37° C., 10 h",12.5 µg/mL
same,MIC against P. aeruginosa,Pseudomonas aeruginosa; [1],25 µg/mL
same,MIC against K. pneumonia,Klebsiella pneumonia; [2],50 µg/mL
same,MIC against E. cloacae,Enterobacter cloacae; [3],12.5 µg/mL
same,MIC against A. hydrophila,Aeromonas hydrophila; [4],50 µg/mL
same,MIC against C. diversus,Citrobacter diversus; [5],12.5 µg/mL
same,MIC against M. catarrhalis,Moraxella catarrhalis; [6],12.5 µg/mL
same,MIC against P. mirabilis,Proteus mirabilis; [7],12.5 µg/mL
same,MIC against P. vulgaris,Proteus vulgaris; [8],50 µg/mL
same,MIC against S. marcescens,Serratia marcescens; [9],12.5 µg/mL
PRT771 (VQDLCSKTTCKNDGVCTVRDGKAECRCQSGEDWWYMGERCE; listed as Homo sapiens),MIC,E. coli DH5α,25 µg/mL
same,MIC (μg/mL) E. coli BL21,E. coli BL21; 10 h cultivation at 37° C.,12.5 µg/mL
same,MIC (μg/mL) P. aeruginosa,"Pseudomonas aeruginosa; P. aeruginosa, 10 h cultivation at 37° C.",50 µg/mL
same,MIC (μg/mL) K. pneumonia,"Klebsiella pneumonia; K. pneumonia, 10 h cultivation at 37° C.",12.5 µg/mL
same,MIC (μg/mL) E. cloacae,"Enterobacter cloacae; E. cloacae, 10 h cultivation at 37° C.",50 µg/mL
same,MIC (μg/mL) A. hydrophila,"Aeromonas hydrophila; A. hydrophila, 10 h cultivation at 37° C.",12.5 µg/mL
same,MIC (μg/mL) C. diversus,"Citrobacter diversus; C. diversus, 10 h cultivation at 37° C.",50 µg/mL
same,MIC (μg/mL) M. catarrhalis,"Moraxella catarrhalis; M. catarrhalis, 10 h cultivation at 37° C.",12.5 µg/mL
same,MIC (μg/mL) P. mirabilis,"Proteus mirabilis; P. mirabilis, 10 h cultivation at 37° C.",50 µg/mL
same,MIC (μg/mL) P. vulgaris,"Proteus vulgaris; P. vulgaris, 10 h cultivation at 37° C.",12.5 µg/mL
same,MIC (μg/mL) S. marcescens,"Serratia marcescens; S. marcescens, 10 h cultivation at 37° C.",50 µg/mL
PRT73 (TNGQCQCKENYYKLLAQDTCLPCDCFPHGSHSRTCD; listed as Homo sapiens),MIC,E. coli DH5α,25 µg/mL
same,MIC (μg/mL) E. coli BL21,"E. coli BL21; 96-well plate, 37° C., 10 h",50 µg/mL
same,MIC (μg/mL) P. aeruginosa,Pseudomonas aeruginosa; [1],25 µg/mL
same,MIC (μg/mL) K. pneumonia,Klebsiella pneumonia; [2],100 µg/mL
same,MIC (μg/mL) E. cloacae,Enterobacter cloacae; [3],25 µg/mL
same,MIC (μg/mL) A. hydrophila,Aeromonas hydrophila; [4],50 µg/mL
same,MIC (μg/mL) C. diversus,Citrobacter diversus; [5],12.5 µg/mL
same,MIC (μg/mL) M. catarrhalis,Moraxella catarrhalis; [6],50 µg/mL
same,MIC (μg/mL) P. mirabilis,Proteus mirabilis; [7],12.5 µg/mL
same,MIC (μg/mL) P. vulgaris,Proteus vulgaris; [8],50 µg/mL
same,MIC (μg/mL) S. marcescens,Serratia marcescens; [9],12.5 µg/mL
PRT1276 (LTCNYGNGGCQHTCDDTEQGPRCGCHIKFVLHTDGKTCI; listed as Homo sapiens),MIC,E. coli DH5α,50 µg/mL
same,MIC against E. coli BL21,"E. coli BL21; 96-well plate, 37° C., 10 h",12.5 µg/mL
same,MIC against P. aeruginosa,Pseudomonas aeruginosa; [1],50 µg/mL
same,MIC against K. pneumonia,Klebsiella pneumonia; [2],12.5 µg/mL
same,MIC against E. cloacae,Enterobacter cloacae; [3],50 µg/mL
same,MIC against A. hydrophila,Aeromonas hydrophila; [4],12.5 µg/mL
same,MIC against C. diversus,Citrobacter diversus; [5],50 µg/mL
same,MIC against M. catarrhalis,Moraxella catarrhalis; [6],12.5 µg/mL
same,MIC against P. mirabilis,Proteus mirabilis; [7],50 µg/mL
same,MIC against P. vulgaris,Proteus vulgaris; [8],12.5 µg/mL
same,MIC against S. marcescens,Serratia marcescens; [9],50 µg/mL
PRT1241 (WSSTCRRPCQCNTAAARCEQATGACVCKPGWWGRRCS; listed as Homo sapiens),MIC,E. coli DH5α,50 µg/mL
same,MIC against E. coli BL21,"E. coli BL21; 96-well plate, 37° C., 10 h",25 µg/mL
same,MIC against P. aeruginosa,Pseudomonas aeruginosa; [1],12.5 µg/mL
same,MIC against K. pneumonia,Klebsiella pneumonia; [2],50 µg/mL
same,MIC against E. cloacae,Enterobacter cloacae; [3],12.5 µg/mL
same,MIC against A. hydrophila,Aeromonas hydrophila; [4],50 µg/mL
same,MIC against C. diversus,Citrobacter diversus; [5],12.5 µg/mL
same,MIC against M. catarrhalis,Moraxella catarrhalis; [6],25 µg/mL
same,MIC against P. mirabilis,Proteus mirabilis; [7],50 µg/mL
same,MIC against P. vulgaris,Proteus vulgaris; [8],25 µg/mL
same,MIC against S. marcescens,Serratia marcescens; [9],12.5 µg/mL
PRT1084 (HLVKCAEKEKTFCVNGGECFMVKDLSNPSRYLCKCQPGFTGARCT; listed as Homo sapiens),MIC,E. coli DH5α,50 µg/mL
same,MIC E. coli BL21,E. coli BL21; 10 h cultivation at 37° C.,12.5 µg/mL
same,MIC P. aeruginosa,Pseudomonas aeruginosa; 10 h cultivation at 37° C.,50 µg/mL
same,MIC K. pneumonia,Klebsiella pneumonia; 10 h cultivation at 37° C.,50 µg/mL
same,MIC E. cloacae,Enterobacter cloacae; 10 h cultivation at 37° C.,50 µg/mL
same,MIC A. hydrophila,Aeromonas hydrophila; 10 h cultivation at 37° C.,12.5 µg/mL
same,MIC C. diversus,Citrobacter diversus; 10 h cultivation at 37° C.,12.5 µg/mL
same,MIC M. catarrhalis,Moraxella catarrhalis; 10 h cultivation at 37° C.,25 µg/mL
same,MIC P. mirabilis,Proteus mirabilis; 10 h cultivation at 37° C.,12.5 µg/mL
same,MIC P. vulgaris,Proteus vulgaris; 10 h cultivation at 37° C.,25 µg/mL
same,MIC S. marcescens,Serratia marcescens; 10 h cultivation at 37° C.,12.5 µg/mL
PRT1079 (DQCSLNNGGCSHNCSVAPGEGIVCSCPLGMELGPDNHTCQ; listed as Homo sapiens),MIC,E. coli DH5α,50 µg/mL
same,MIC E. coli BL21,E. coli BL21; 10 h cultivation at 37° C.,12.5 µg/mL
same,MIC P. aeruginosa,Pseudomonas aeruginosa; 10 h cultivation at 37° C.,50 µg/mL
same,MIC K. pneumonia,Klebsiella pneumonia; 10 h cultivation at 37° C.,12.5 µg/mL
same,MIC E. cloacae,Enterobacter cloacae; 10 h cultivation at 37° C.,50 µg/mL
same,MIC A. hydrophila,Aeromonas hydrophila; 10 h cultivation at 37° C.,12.5 µg/mL
same,MIC C. diversus,Citrobacter diversus; 10 h cultivation at 37° C.,50 µg/mL
same,MIC M. catarrhalis,Moraxella catarrhalis; 10 h cultivation at 37° C.,12.5 µg/mL
same,MIC P. mirabilis,Proteus mirabilis; 10 h cultivation at 37° C.,50 µg/mL
same,MIC P. vulgaris,Proteus vulgaris; 10 h cultivation at 37° C.,50 µg/mL
same,MIC S. marcescens,Serratia marcescens; 10 h cultivation at 37° C.,12.5 µg/mL
